Experimental data taken from article PMC12591170, “Glabridin‐Gold(I) Complex as a Novel Immunomodulatory Agent Targeting TrxR and MAPK Pathways for Synergistic Enhancement of Antitumor Immunity” (Advanced Science, 2025).
“Also recorded” adds a separate entry of the source.

How the values were obtained:
[1] = test system: 293T cells; assay: MTT assay, normal kidney cell line 293T; assay type: cell-based; conditions: 72 h MTT assay, Mean ± SD
Procedure: All cells were incubated at 37 °C by DMEM complete medium (containing 1% penicillin−streptomycin and 12% FBS) in 5% CO2 incubator. 2–5 × 10^3 cells were cultured in 96‐well plates and each well contained 100 µL complete medium. OXA was dissolved in water, and all other complexes were dissolved in DMF. After cells adhered in the wells, different concentrations of complexes were diluted in 100 µL complete medium and added in the wells. The final volume in the each well was 200 µL and the content of DMF was maximum 0.5%. After 72 h incubation, the antiproliferative activity was tested by MTT assay.

[2] = Solubility by UV absorbance; assay type: physicochemical; conditions: PBS: DMF = 200:1, 298K
Procedure: Weigh a certain amount of 6d, dissolve it in a PBS: DMF = 200:1 solution, and mix to obtain the high‐concentration solution. Then dilute the original solution to prepare solutions of different concentrations. The ultraviolet absorbance values at the maximum absorption wavelength (237 nm) were measured in sequence, and the standard curve was plotted (Figure S40, Supporting Information). Prepare the saturated 6d solution by the same method. After centrifugation, take the supernatant and dilute it 7 times.

[3] = test system: purified TrxR; assay: Purified TrxR activity assay (DTNB); assay type: biochemical; conditions: 0.625-20 µM
Procedure: Different concentrations of complex 6d solution and 1.8 U purified TrxR were added to the wells (25 µL per well separately). Consequently, the reaction solution (20 mg mL^−1 BSA, 500 mM EDTA‐2Na, and 40 mg mL^−1 NADPH, diluted in a 1:1 mixture of PBS and water) was added to the 96 wells (225 µL per well). Finally, 25 mg mL^−1 DTNB solution was added (25 µL per well) and OD values were immediately measured at 405 nm. The linear growth at 405 nm was calculated to show the purified TrxR activity. Final concentrations of complex 6d were 0.625, 1.25, 2.5, 5, 10, 20 µM.

[4] = test system: HepG2 cells; assay: MMP measurement (JC-1); assay type: cell-based, human; conditions: HepG2, 24 h
Procedure: 12‐well plate was applied to incubate HepG2 cells (5 × 10^4 cells per wells). After overnight, cells were treated with DMF (0.1%), AF (4 µM) or different concentrations of 6d (2, 4, 8 µM) for 24 h. 2.5 µg mL^−1 JC‐1 probe was added in the wells after removing original liquid. 15 min later, PBS was applied to wash cells for two times. Then, the fluorescence images were captured by the fluorescence microscopy.

[5] = test system: HepG2 cells; assay: Apoptosis assay (annexin V-EGFP/PI); assay type: cell-based, human; conditions: HepG2, 24 h
Procedure: 4 × 10^5 HepG2 cells was seeded in 6‐well plates for overnight incubation. DMF (0.1%), AF (4 µM) or different concentrations of 6d (2, 4, 8 µM) were added in the wells for 24 h. PBS was applied to wash cells for two times, and cells were collected subsequently. After washing twice by PBS, Annexin V‐EGFP/PI Apoptosis Detection kit was used to dye the cells. Then, the apoptosis ratio was analyzed by flow cytometer.

[6] = test system: PD-L1; assay: PD-L1 expression in HepG2 (western blot, immunofluorescence, flow cytometry); assay type: cell-based, human; conditions: HepG2, 24 h
Procedure: (§1) HepG2 cells were incubated in 6 cm culture dishes and treated with different complexes. The treated cells were lysed with lysis buffer (RIPA:PMSF:phosphatase inhibitor:protease inhibitor = 100:1:1:1). The lysed cells were further broken by sonication, and proteins were isolated by centrifugation. The protein concentrations were detected by BCA assay. 10% SDS PAGE gel was usually applied to separate the different kDa of proteins, and more than 200 kDa of proteins were separated using 8% SDS PAGE gel. After seperation, proteins were transferred onto polyvinylidene difluoride (PVDF) membranes. The target proteins were labeled by various specific primary antibodies at 4 °C overnight. Then, the membranes were treated with anti‐rabbit or anti‐mouse secondary antibody for 2 h. Tris buffered saline with tween 20 (TBST) was applied to wash the membranes after each operation above. The target proteins’ bands were detected by the enhanced chemiluminescence (ECL) procedure.
5 × 10^4 HepG2 cells were treated with complexes in 24‐well plates for 24 h. Subsequently, cells were fixed with 4% paraformaldehyde. Various specific antibodies were added for incubation at 4 °C overnight after cells were permeabilized with Triton X‐100 (except for membrane proteins) and blocked with BSA. Then, the cells were incubated with fluorescently‐labeled secondary antibodies in darkness for 2 h. After that, DAPI was added to stain nuclear in darkness. PBS was applied for washing after each operation above (Tris buffered saline (TBS) was applied for washing if phosphorylated protein was analyzed). The cell images were captured by the fluorescence microscopy.
4 × 10^5 HepG2 cells were incubated in 6‐well plates, and complexes were added in the wells. The cells were collected after incubation, and the treated cells were labeled with probes or fluorescently‐labeled antibodies. A flow cytometer was applied to analyze the labeled cells.

[7] = test system: HIF-1α; assay: Western blot of HIF-1α in HepG2; assay type: cell-based, human; conditions: HepG2, 24 h
Procedure: as §1

[8] = test system: PD-L1; assay: In vivo PD-L1 expression in tumor tissue; design: species or system C57BL/6 mice; conditions: western blot, 13 days of treatment
[9] = In vivo tolerability (body weight, survival, organ H&E)
Procedure: All mice were 6–8 weeks old males and procured from Hangzhou Medical College, located in Hangzhou, China. […] 2 × 10^6 Hepa1‐6 cells in 100 µL DMEM were subcutaneously seeded in underarms of C57BL/6 mice. […] Meanwhile, the mice weights and tumor volume were recorded, and the calculation formula of tumor volume was Volume = Width^2 × Length/2. After 13 days, all mice were sacrificed for collection of tumors, hearts, livers, spleens, lungs and kidneys. Collagenase IV (1 mg mL^−1) and DNase I (1 µg mL^−1) were applied to digest a part of the tumor tissue into cell suspension, and lysis buffer was used to remove red blood cells. The prepared cells above were stained with antibodies (anti‐CD3e‐FITC, and anti‐CD8a‐PE; anti‐CD11c‐APC, anti‐CD80‐PE, and anti‐CD86‐FITC; anti‐CD45‐Percp, anti‐CD11b‐APC, and anti‐Ly‐6G/Ly‐6C(Gr‐1)‐FITC; anti‐CD11b‐APC, anti‐CD206‐PE, and CD86‐FITC). CD3^+CD8^+ T cells, CD80^+CD86^+ DCs, CD11b^+Gr‐1^+ MDSCs, CD206^−CD86^+ M1‐type macrophages and CD206^+CD86^− M2‐type macrophages were analyzed by flow cytometry. Then, another part of tumor tissues were fixed with 4% paraformaldehyde, embedded in paraffin, cut into slices and stained with antibodies for immunofluorescence and immunohistochemistry analysis. H&E stain assays were applied for all tissue samples.

[10] = mouse

## CCn1ccn(CCCCCOc2ccc([C@@H]3COc4c(ccc5c4C=CC(C)(C)O5)C3)c(OCCCCCn3ccn(CC)[c]3=[Au][Br])c2)[c]1=[Au][Br] [6d]
[1]
  IC50: 5.14 ± 0.3 µM
[2]
  solubility: 108 µg/mL
[3]
  purified TrxR activity: suppressed TrxR activity
[4]
  mitochondrial membrane potential (MMP): decreased MMP
[5]
  apoptosis: apoptosis was observed
[6]
  PD-L1 expression (western blot): downregulated; also recorded: significantly inhibited
[6]; immunofluorescence and flow cytometry
  PD-L1 expression on the membrane surface: reduced
[7]
  HIF-1α expression (western blot): significantly inhibited
[8]
  PD-L1 expression in tumor tissue: inhibited
[9]; 6d and OXA 5 mg kg^−1, GLA 10 mg kg^−1, i.p. every two days, OXA after nine days
  effect on mice body weight: no significant effect
[9]; heart, liver, spleen, lung, kidney, day 13
  organ tissue damage (H&E staining): did not cause noticeable damage to organ tissues
[10]; 2 h
  metabolic stability in whole blood: high metabolic stability
[10]; blood
  T1/2: ∞
[10]; blood, 0 h
  Percent Remaining (%) (Mean, n=2) 0 min: 100%
[10]; blood, 5 min
  Percent Remaining (%) (Mean, n=2) 5 min: 98.8%
[10]; blood, 0.25 h
  Percent Remaining (%) (Mean, n=2) 15 min: 107%
[10]; blood, 0.5 h
  Percent Remaining (%) (Mean, n=2) 30 min: 103%
[10]; blood, 1 h
  Percent Remaining (%) (Mean, n=2) 60 min: 103%
[10]; blood, 2 h
  Percent Remaining (%) (Mean, n=2) 120 min: 108%
